Assay results taken from the METLIN SMRT retention time set (Domingo-Almenara et al. 2019).

test: gradient 5% acetonitrile 3 min, to 50% in 2 min, to 85% in 15 min, held 3 min, 100 µL/min; conditions: column: Zorbax Extend-C18 2.1 x 50 mm; eluents: water / acetonitrile, 0.1% formic acid
Outline: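 Over 3 months, pure standards in mixtures of ~100 molecules were run by HPLC coupled to a quadrupole time-of-flight mass spectrometer in positive and negative ionization mode. The column was a Zorbax Extend-C18 (2.1 × 50 mm, 1.8 μm) at 100 μL/min, eluted with water and acetonitrile each holding 0.1% formic acid, with 40 μL dead and 900 μL dwell volumes. Retention time was determined from adduct peaks chosen by software and checked manually.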

Row | SMILES | RP-LC retention time [s]
1 | COc1ccc(NC(=O)C(C)C2CCN(C(=O)Nc3ccc(Cl)cc3)CC2)cc1 (stereo not given) | 854
2 | O=C(NCc1ccco1)c1csc(N2CCN(c3ccc(F)cc3)CC2)n1 | 991
3 | CCOC(=O)c1[nH]c(C)c(C(=O)C(C)N(C(=O)c2ccc(Cl)cc2)C2CC2)c1C (stereo not given) | 978
4 | CSc1cccc(NC(=O)CN2CCC3(CC2)N=C(c2ccc(Cl)cc2)C(=O)N3)c1 | 627
5 | c1cncc(CN2CCC(n3ncc4c(N5CCOCC5)nc(-c5ccc6[nH]ccc6c5)nc43)CC2)c1 | 675
6 | O=C([C@@H]1C[C@H](Oc2ccccc2)CN1C1CCOCC1)N1CCc2ccccc21 | 709
7 | CCCN(c1ccccc1F)S(=O)(=O)c1ccc2c(c1)N(C(C)=O)CCCS2 | 993
8 | O=C(NCCC1=CCCCC1)C1CCN(c2cnc(N3CCCCC3)nc2)CC1 | 872
9 | CCOC(=O)C1CCCN(C(=O)C2CCc3nc(N(CC)CC)ncc3C2)C1 (stereo not given) | 620
10 | CC(CCNc1ccc(-c2nc(-c3ccc(F)cc3)no2)cn1)N1CCCCCC1 (stereo not given) | 768
11 | O=C(NC1CCCCC1)c1ccc(Nc2c(-c3ccccc3)nc3cnccn23)cc1 | 802
12 | Cc1nc(-c2cccc(-c3noc(-c4ccc5cc[nH]c5c4)n3)c2)cs1 | 1230
13 | CCC(=O)N(C1CCOCC1)C1CCN(S(=O)(=O)c2cccc(Cl)c2)CC1 | 872
14 | COc1ccc2c(c1O)-c1cccc3c1[C@@H](C2)N(C)CC3 | 643
15 | CCOC(=O)c1cc(S(=O)(=O)N2CCCC2C(=O)NCCC2=CCCCC2)cn1C (stereo not given) | 985
16 | Cc1oc(-c2ccc(C(=O)N3CCCCC3)cc2)nc1CS(=O)(=O)c1ccccc1 | 843
17 | O=C(NCCCN1CCCC1=O)c1cccc2c1CCN2C(=O)Nc1ccc(F)cc1 | 680
18 | Clc1ccc(-c2noc3ncnc(N4CCN(c5ccccn5)CC4)c23)cc1 | 697
19 | CN1C(=O)c2cc(S(=O)(=O)NC3CCCCCC3)ccc2Oc2cccnc21 | 1000
20 | Cc1cc(S(=O)(=O)N2CCc3c(c(-c4nnc(-c5ccc(F)cc5)o4)nn3C)C2)ccc1F | 992
21 | O=S(=O)(c1ccc2c(c1)CCC2)N1CC(c2nc(CCOCc3ccccc3)no2)C1 | 1140
22 | COc1ccc(C(=O)N2CCC(c3noc(-c4cnccn4)n3)C2)cn1 (stereo not given) | 790

Row | SMILES | RP-LC retention time [s]
23 | CC(C)NC(=O)N1CCN(Cc2nc3cccnc3n2-c2cccc(F)c2)CC1 | 609
24 | CCC(CN1CCOCC1)NC(=O)c1c2c(nc3ccccc13)C(=O)N(C1CCCCC1)C2 (stereo not given) | 610
25 | CCCNc1nc(N2CCOCC2)nc(N2CC3CC(C2)c2cccc(=O)n2C3)n1 (stereo not given) | 562
26 | COC1CCC12CCN(C(=O)CNC(C)=O)CC2 (stereo not given) | 607
27 | Cn1cc(-c2cc3n(n2)CCCN3C(=O)CCC(=O)N2CCCCCC2)c2ccccc21 | 837
28 | Cc1nn2c(CNC(=O)c3cccs3)c(-c3ccccc3)nc2s1 | 797
29 | CCCN1CCO[C@@H]2c3cc(O)ccc3OC[C@H]21 | 645
30 | O=C(NCc1csc(-c2ccccc2)n1)C1CCN(S(=O)(=O)c2ccccc2)CC1 | 903
31 | Cc1cc(C(=O)O)c2cc(F)ccc2n1 | 486
32 | COc1cccc(NS(=O)(=O)c2cc3c(s2)CCN(C(=O)C2CCC2)C3)c1 | 851
33 | Cc1cc(-c2nnc(C3CC3)o2)c(C)n1CC(=O)NCc1ccc(F)cc1F | 811
34 | Cc1nc(N2CCOCC2)cc(N2CCN(C(=O)c3ccc(Br)o3)CC2)n1 | 619
35 | Cc1oc(-c2[nH]ncc2C(=O)N2CCCC2)cc1S(=O)(=O)N1CCOCC1 | 619
36 | Cc1nn(CC(=O)NCC2CCCCC2)c(=O)c2nc(-c3ccccc3)sc12 | 958
37 | O=C(O)c1cnc(N2CCSCC2)nc1-c1ccccc1 | 866
38 | CN1C(=O)c2cc(S(=O)(=O)Nc3ccc(Cl)cc3F)ccc2Oc2cccnc21 | 962
39 | O=C(CCc1ccc2nc(-c3ccccc3)[nH]c2c1)N1CCC(N2CCCCC2)CC1 | 559
40 | CC(C)n1cnc2ccc(-c3noc(-c4cccc(F)c4)n3)cc21 | 810
41 | COc1ccc(C2Cn3nnc(C(=O)N4CCC(C(=O)NC5CC5)CC4)c3CO2)cc1 (stereo not given) | 699
42 | CN(Cc1nc(-c2ccc(N3CCCC3)nc2)no1)C1CCCCC1 | 569
43 | CN(C)C(=O)c1cc2c(s1)CCC(C(=O)Nc1ccc3c(c1)OCCO3)C2 (stereo not given) | 764
44 | Cc1cccc(CN2CCCn3nc(C(=O)NCCCN4CCOCC4)cc3C2=O)c1 | 567

Next, values leading:

Row | RP-LC retention time [s] | SMILES
45 | 853 | CCCCS(=O)(=O)c1cc2c(cc1NC(=O)c1ccccc1C)n(C)c(=O)n2C
46 | 837 | Cc1ccccc1-n1ccn(Cc2nc(-c3cccc(F)c3)no2)c(=O)c1=O
47 | 1150 | COc1ccc(S(=O)(=O)N2CCC(c3noc(-c4ccccc4C)n3)CC2)cc1
48 | 805 | COc1cc(-n2c(=O)c3ccccc3n(Cc3ccccc3C#N)c2=O)cc(OC)c1OC
49 | 913 | COc1ccc(NC(=O)Nc2nccn(-c3ccc(C)c(C)c3)c2=O)cc1OC
50 | 998 | CCc1ccc(Oc2cc(N3CCC(C(=O)NCCc4ccccc4)CC3)ncn2)cc1
51 | 698 | Cc1cc(C)n2nc(SCC(=O)NCc3ccccc3Cl)nc2n1
52 | 652 | COc1ccc(S(=O)(=O)Nc2cc(-c3cn4ccc(C)cc4n3)ccc2C)cc1OC
53 | 727 | COc1cccc(OCC(O)CN2CCN(c3ccccc3)CC2)c1 (stereo not given)
54 | 956 | Cc1cccc(-n2c(N3CCCC(C(=O)NCc4ccccc4Cl)C3)nc3ccsc3c2=O)c1 (stereo not given)
55 | 894 | O=C(Cn1nc(N2CCOCC2)c2ccccc2c1=O)Nc1cccc(C(F)(F)F)c1
56 | 1090 | CSc1cccc(NC(=O)Nc2nc(-c3ccccc3)cs2)c1
57 | 730 | Cc1ccc2c(c1)N(C(=O)Cn1nc3c4ccccc4ncn3c1=O)CCO2
58 | 741 | COc1ccc(C(=O)N2CCN(c3cc(-c4cccs4)[nH]n3)CC2)cc1OC
59 | 777 | COc1ccc(-c2cc(C(F)(F)F)n3ncc(C(=O)O)c3n2)cc1OC
60 | 632 | CC(=O)Nc1ccc(S(=O)(=O)N2CCN(c3cc(C)c4ccccc4n3)CC2)cc1
61 | 1340 | COc1ccc(Cn2nc3ccc(S(=O)(=O)N4CCC(C)CC4)cn3c2=O)cc1F
62 | 799 | CCc1ccccc1NC(=O)N1CCC(n2cnc3ccc(C)cc3c2=O)CC1
63 | 611 | CC(=O)N(Cc1nn(C)c2c1CN(Cc1sccc1C)CC2)c1ccccc1
64 | 988 | COC(=O)c1sc2ccc(NC(=O)C3CCN(S(=O)(=O)c4cccs4)CC3)cc2c1OC
65 | 881 | CCN1c2ccccc2C(=O)NC12CCN(C(=O)NCc1ccccc1)CC2
